Where two headings read alike, the source gives them in different places.
What was measured:
human HDAC8 = human HDAC8 (Homo sapiens (Human), UniProt Q9BY41); test: HDAC8 inhibition assay (modified FLUOR DE LYS, 384-well); assay type: biochemical; conditions: […] enzyme, 200 μM substrate BML-KI178, 3 h pre-incubation; read-out: HDAC8 IC50
human HDAC2 = human HDAC2 (Homo sapiens (Human), UniProt Q92769); test: HDAC2 inhibition assay (modified FLUOR DE LYS, 384-well); assay type: biochemical; conditions: […] enzyme, 40 μM substrate BML-KI104, 3 h pre-incubation; read-out: HDAC2 IC50
Sequence of human HDAC2 (Q92769 whole entry): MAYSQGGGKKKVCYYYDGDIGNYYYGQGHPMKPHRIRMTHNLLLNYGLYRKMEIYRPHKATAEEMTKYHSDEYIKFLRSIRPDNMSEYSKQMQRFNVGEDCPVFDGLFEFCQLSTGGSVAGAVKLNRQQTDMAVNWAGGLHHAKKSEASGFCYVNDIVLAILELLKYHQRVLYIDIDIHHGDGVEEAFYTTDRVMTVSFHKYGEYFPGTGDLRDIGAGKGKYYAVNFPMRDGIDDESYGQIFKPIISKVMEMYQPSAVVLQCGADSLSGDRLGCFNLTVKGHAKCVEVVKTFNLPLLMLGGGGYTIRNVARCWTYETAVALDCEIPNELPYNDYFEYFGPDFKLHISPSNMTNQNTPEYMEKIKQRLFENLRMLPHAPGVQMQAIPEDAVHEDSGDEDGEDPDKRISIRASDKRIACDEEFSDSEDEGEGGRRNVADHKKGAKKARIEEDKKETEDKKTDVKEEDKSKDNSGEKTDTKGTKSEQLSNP

human HDAC1 = human HDAC1 (Homo sapiens (Human), UniProt Q13547)
Sequence of human HDAC1 (Q13547 whole entry): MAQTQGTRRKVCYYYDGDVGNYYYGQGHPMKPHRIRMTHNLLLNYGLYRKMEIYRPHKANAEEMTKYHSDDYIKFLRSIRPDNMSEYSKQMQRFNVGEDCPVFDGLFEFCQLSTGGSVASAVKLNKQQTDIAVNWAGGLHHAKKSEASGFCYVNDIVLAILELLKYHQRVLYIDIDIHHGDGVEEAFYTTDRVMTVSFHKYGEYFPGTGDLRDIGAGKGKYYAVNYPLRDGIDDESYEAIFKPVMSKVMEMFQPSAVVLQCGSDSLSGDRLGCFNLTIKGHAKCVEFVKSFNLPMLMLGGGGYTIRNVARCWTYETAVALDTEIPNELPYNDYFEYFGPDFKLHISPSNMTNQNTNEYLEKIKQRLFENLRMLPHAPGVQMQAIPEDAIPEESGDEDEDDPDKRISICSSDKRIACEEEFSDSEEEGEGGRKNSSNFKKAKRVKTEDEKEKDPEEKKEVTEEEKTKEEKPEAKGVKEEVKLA

HDAC6 = HDAC6 (Homo sapiens (Human), UniProt Q9UBN7)
Sequence of HDAC6 (Q9UBN7 whole entry): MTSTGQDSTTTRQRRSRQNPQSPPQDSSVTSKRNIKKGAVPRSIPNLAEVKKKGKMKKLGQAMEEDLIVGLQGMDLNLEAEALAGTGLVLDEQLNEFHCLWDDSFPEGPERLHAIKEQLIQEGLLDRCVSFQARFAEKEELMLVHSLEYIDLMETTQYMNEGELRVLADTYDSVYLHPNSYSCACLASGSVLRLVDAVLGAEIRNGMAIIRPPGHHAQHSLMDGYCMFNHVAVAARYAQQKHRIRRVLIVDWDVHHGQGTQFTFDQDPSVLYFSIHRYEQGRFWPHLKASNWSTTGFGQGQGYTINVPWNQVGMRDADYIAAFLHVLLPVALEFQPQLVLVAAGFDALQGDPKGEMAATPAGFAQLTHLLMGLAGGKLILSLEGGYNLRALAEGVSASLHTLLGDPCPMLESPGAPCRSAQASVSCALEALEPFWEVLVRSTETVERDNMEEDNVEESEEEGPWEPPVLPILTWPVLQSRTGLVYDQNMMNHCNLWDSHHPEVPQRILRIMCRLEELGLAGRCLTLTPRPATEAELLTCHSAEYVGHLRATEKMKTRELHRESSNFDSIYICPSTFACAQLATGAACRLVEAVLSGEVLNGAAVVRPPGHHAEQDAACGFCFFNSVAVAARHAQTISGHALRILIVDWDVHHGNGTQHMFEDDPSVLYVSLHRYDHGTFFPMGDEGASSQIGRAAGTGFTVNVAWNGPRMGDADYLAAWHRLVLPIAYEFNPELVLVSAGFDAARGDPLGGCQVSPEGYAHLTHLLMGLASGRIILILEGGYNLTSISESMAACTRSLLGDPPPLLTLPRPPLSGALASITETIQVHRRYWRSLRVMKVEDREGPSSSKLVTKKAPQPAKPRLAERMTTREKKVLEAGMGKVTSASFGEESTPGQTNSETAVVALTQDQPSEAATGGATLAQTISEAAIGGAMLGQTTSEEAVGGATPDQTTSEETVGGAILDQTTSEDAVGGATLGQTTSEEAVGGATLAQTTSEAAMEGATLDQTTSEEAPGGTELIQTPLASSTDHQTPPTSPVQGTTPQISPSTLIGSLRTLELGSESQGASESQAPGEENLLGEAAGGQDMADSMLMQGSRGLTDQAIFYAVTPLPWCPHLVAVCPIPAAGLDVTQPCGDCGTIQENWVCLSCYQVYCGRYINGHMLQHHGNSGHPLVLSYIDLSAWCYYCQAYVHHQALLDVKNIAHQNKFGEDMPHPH
Protocol: The histone deacetylase activities of HDAC1, HDAC2, HDAC3, HDAC6, and HDAC8 were measured in modified FLUOR DE LYS assays in 384-well format. In this assay, HDAC enzymes are initially incubated with an F-acetyl (or -trifluoroacetyl)-L-lysine-containing substrate with a C-terminal amide having aminomethylcoumarin as the amine component. HDACs cleave the F-acetyl group, rendering the resulting product susceptible to AMC cleavage by trypsin. The released AMC is then detected by its fluorescence. […] All steps were performed at room temperature (23° C.). The assay was performed by pre-incubating serial dilutions of test compounds with the target HDAC prior to initiation with substrate. […] Final conditions used for each assay were: 1. […] The reactions were stopped and developed by addition of 30 ul of HDAC developer solution containing a saturating level of HDAC inhibitor as follows: 1. […] For data analysis, background subtracted product (fluorescence) vs. time data for each inhibitor concentration was fitted using a 4-parameter fit.

[1] = biological target: human HDAC3/SMRT heterodimer (Homo sapiens (Human), UniProt O15379)
Sequence of human HDAC3/SMRT heterodimer (O15379 whole entry): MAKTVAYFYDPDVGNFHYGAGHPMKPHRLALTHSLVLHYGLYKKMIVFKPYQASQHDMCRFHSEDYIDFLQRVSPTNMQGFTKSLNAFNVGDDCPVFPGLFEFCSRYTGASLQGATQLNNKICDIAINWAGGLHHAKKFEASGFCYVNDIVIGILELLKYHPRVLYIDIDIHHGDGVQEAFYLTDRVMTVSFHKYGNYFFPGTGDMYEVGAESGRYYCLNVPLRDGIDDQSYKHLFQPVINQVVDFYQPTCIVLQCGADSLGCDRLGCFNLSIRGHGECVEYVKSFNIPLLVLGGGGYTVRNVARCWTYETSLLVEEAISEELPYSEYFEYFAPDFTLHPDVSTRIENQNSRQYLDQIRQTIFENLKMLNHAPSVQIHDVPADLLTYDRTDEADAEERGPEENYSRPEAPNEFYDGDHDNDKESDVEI
Sequence of human HDAC3/SMRT heterodimer (Q9Y618 1-899 partner): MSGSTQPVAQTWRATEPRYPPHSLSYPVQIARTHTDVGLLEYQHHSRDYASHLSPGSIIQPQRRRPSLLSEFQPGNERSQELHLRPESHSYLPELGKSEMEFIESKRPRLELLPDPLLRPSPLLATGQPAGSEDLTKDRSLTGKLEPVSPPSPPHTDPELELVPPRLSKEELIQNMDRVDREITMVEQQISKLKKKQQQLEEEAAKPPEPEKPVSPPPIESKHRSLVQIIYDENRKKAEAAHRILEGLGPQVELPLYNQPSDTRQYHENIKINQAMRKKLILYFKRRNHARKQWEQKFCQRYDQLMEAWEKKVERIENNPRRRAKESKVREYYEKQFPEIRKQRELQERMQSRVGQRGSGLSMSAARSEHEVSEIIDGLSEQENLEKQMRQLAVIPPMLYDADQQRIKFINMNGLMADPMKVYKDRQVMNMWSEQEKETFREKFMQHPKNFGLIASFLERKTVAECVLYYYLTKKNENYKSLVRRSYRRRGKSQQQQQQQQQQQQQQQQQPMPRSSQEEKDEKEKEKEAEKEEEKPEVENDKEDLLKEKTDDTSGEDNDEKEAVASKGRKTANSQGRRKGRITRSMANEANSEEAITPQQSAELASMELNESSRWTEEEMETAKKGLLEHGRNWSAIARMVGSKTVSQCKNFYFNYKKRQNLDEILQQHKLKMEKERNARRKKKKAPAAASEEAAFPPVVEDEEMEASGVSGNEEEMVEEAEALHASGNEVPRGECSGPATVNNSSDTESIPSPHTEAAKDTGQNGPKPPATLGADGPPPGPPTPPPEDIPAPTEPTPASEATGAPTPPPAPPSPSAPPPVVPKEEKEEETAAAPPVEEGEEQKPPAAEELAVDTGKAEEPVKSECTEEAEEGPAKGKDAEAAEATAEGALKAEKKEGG

KARN cells (Jurkat 2C4) = test: cells; conditions: Homo sapiens
[2] = read-out: Karn EC50 nM 0.1% NHS, 0.1% normal human serum, luciferase induction, 2 μM SAHA = 100%
[3] = read-out: Karn EC50 nM 5% NHS, 5% normal human serum, luciferase induction, 2 μM SAHA = 100%

Sequence of human HDAC8 (Q9BY41 whole entry): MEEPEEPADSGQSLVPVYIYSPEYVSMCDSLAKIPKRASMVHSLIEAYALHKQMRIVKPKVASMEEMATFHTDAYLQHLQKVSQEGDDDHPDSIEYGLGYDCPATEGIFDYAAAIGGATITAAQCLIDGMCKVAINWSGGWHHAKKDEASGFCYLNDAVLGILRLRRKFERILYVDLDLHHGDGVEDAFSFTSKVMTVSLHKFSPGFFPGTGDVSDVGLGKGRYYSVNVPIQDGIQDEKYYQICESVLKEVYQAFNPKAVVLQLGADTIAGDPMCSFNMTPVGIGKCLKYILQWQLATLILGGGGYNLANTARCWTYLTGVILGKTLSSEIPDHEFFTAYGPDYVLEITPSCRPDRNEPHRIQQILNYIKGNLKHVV

| Structure (SMILES) | IC50 (human HDAC8) [nM] | IC50 (human HDAC2) [nM] | IC50 (human HDAC1) [nM] | IC50 (HDAC6) [nM] | IC50 [1] [nM] | EC50 (KARN cells (Jurkat 2C4); [2]) [nM] | EC50 (KARN cells (Jurkat 2C4); [3]) [nM] |
| --- | --- | --- | --- | --- | --- | --- | --- |
| N[C@@H](CCCCCC(=O)c1ncco1)c1ncc(-c2cccc(C(F)(F)F)c2F)[nH]1 [Example 138, (7S)-7-amino-7-{5-[2-fluoro-3-(trifluoromethyl)phenyl]-1H-imidazol-2-yl}-1-(1,3-oxazol-2-yl)heptan-1-one] | 250 | 37 | 4.3 | > 900 | 3.9 | 2200 | 3400 |
| N[C@@H](CCCCCC(=O)c1ncco1)c1ncc(-c2ccc(C(F)(F)F)cc2F)[nH]1 [Example 139, (7S)-7-amino-7-{5-[2-fluoro-4-(trifluoromethyl)phenyl]-1H-imidazol-2-yl}-1-(1,3-oxazol-2-yl)heptan-1-one] | > 900 | 28 | 5.6 | > 900 | 5.9 | 1700 | 2700 |
| COc1ccc(-c2cnc([C@@H](N)CCCCCC(=O)c3ncco3)[nH]2)c(F)c1 [Example 140, (7S)-7-amino-7-[5-(2-fluoro-4-methoxyphenyl)-1H-imidazol-2-yl]-1-(1,3-oxazol-2-yl)heptan-1-one] | > 900 | 6 | 1 | > 900 | 1.3 | 390 | 860 |
| CS(=O)(=O)c1ccc(-c2cnc([C@@H](N)CCCCCC(=O)c3ncco3)[nH]2)c(F)c1 [Example 143, (7S)-7-amino-7-{5-[2-fluoro-4-(methylsulfonyl)phenyl]-1H-imidazol-2-yl}-1-(1,3-oxazol-2-yl)heptan-1-one] | > 900 | 35 | 7.2 | > 900 | 7.9 | 1200 | 1600 |
| COc1cc(O[C@H]2C[C@H](OC)C2)cc(-c2cnc([C@@H](N)CCCCCC(=O)c3ncco3)[nH]2)c1F [Example 144, (7S)-7-amino-7-(5-{2-fluoro-3-methoxy-5-[(trans-3-methoxycyclobutyl)oxy]phenyl}-1H-imidazol-2-yl)-1-(1,3-oxazol-2-yl)heptan-1-one] | 210 | 39 | 7 | > 900 | 6.4 | 650 | 870 |
| COc1nc2ccccc2cc1-c1cnc([C@H](CCCCCC(=O)c2ncco2)NC(=O)c2ccncn2)[nH]1 [Example 149, N-[(1S)-1-[5-(2-methoxyquinolin-3-yl)-1H-imidazol-2-yl]-7-(1,3-oxazol-2-yl)-7-oxoheptyl]pyrimidine-4-carboxamide] | 140 | 6.6 | 1.7 | 21000 | 1.5 | 69 | 360 |
| COc1nc2ccccc2cc1-c1cnc([C@H](CCCCCC(=O)c2ncco2)NC(=O)Cn2cccc2)[nH]1 [Example 150, N-[(1S)-1-[5-(2-methoxyquinolin-3-yl)-1H-imidazol-2-yl]-7-(1,3-oxazol-2-yl)-7-oxoheptyl]-2-(1H-pyrrol-1-yl)acetamide] | 120 | 8.8 | 2.1 | 2700 | 1.5 | 94 | 500 |
| COc1nc2ccccc2cc1-c1cnc([C@H](CCCCCC(=O)c2ncco2)NC(=O)C2COCCO2)[nH]1 (stereo partly drawn) [Example 152, N-[(1S)-1-[5-(2-methoxyquinolin-3-yl)-1H-imidazol-2-yl]-7-(1,3-oxazol-2-yl)-7-oxoheptyl]-1,4-dioxane-2-carboxamide] | 78 | 5.8 | 0.68 | 12000 | 1.6 | 49 | 350 |
| COc1cc2nc(C)ccc2cc1-c1cnc([C@H](CCCCCC(=O)c2ncco2)NC(=O)CN2CCOCC2=O)[nH]1 [Example 158, N-[(1S)-1-[5-(7-methoxy-2-methylquinolin-6-yl)-1H-imidazol-2-yl]-7-(1,3-oxazol-2-yl)-7-oxoheptyl]-2-(3-oxomorpholin-4-yl)acetamide] | 48 | 5.6 | 1.1 | 590 | 1.5 | 210 | 210 |
| COc1cc2nc(C)ccc2cc1-c1cnc([C@H](CCCCCC(=O)c2ncco2)NC(=O)c2cc3ncccn3n2)[nH]1 [Example 161, N-[(1S)-1-[5-(7-methoxy-2-methylquinolin-6-yl)-1H-imidazol-2-yl]-7-(1,3-oxazol-2-yl)-7-oxoheptyl]pyrazolo[1,5-a]pyrimidine-2-carboxamide] | 44 | 11 | 1.7 | > 900 | 0.57 | 75 | 210 |
| COc1cc2nc(C)ccc2cc1-c1cnc([C@H](CCCCCC(=O)c2ncco2)NC(=O)Cn2cccc2)[nH]1 [Example 162, N-[(1S)-1-[5-(7-methoxy-2-methylquinolin-6-yl)-1H-imidazol-2-yl]-7-(1,3-oxazol-2-yl)-7-oxoheptyl]-2-(1H-pyrrol-1-yl)acetamide] | 300 | 24 | 4.2 | > 900 | 1.5 | 650 | 1200 |
| COc1cc2nc(C)ccc2cc1-c1cnc([C@H](CCCCCC(=O)c2ncco2)NC(=O)c2cc3n(n2)CCCO3)[nH]1 [Example 163, N-[(1S)-1-[5-(7-methoxy-2-methylquinolin-6-yl)-1H-imidazol-2-yl]-7-(1,3-oxazol-2-yl)-7-oxoheptyl]-6,7-dihydro-5H-pyrazolo[5,1-b][1,3]oxazine-2-carboxamide] | 38 | 8.4 | 1.6 | > 900 | 0.53 | 84 | 210 |
| COc1cc2nc(C)ccc2cc1-c1cnc([C@H](CCCCCC(=O)c2ncco2)NC(=O)c2cc3n(n2)CCS(=O)(=O)C3)[nH]1 [Example 165, N-[(1S)-1-[5-(7-methoxy-2-methylquinolin-6-yl)-1H-imidazol-2-yl]-7-(1,3-oxazol-2-yl)-7-oxoheptyl]-6,7-dihydro-4H-pyrazolo[5,1-c][1,4]thiazine-2-carboxamide 5,5-dioxide] | 41 | 7.2 | 2.3 | > 900 | 0.46 | 370 | 760 |
| COc1cc2nc(C)ccc2cc1-c1cnc([C@H](CCCCCC(=O)c2ncco2)NC(=O)Cn2ccc(C)n2)[nH]1 [Example 166, N-[(1S)-1-[5-(7-methoxy-2-methylquinolin-6-yl)-1H-imidazol-2-yl]-7-(1,3-oxazol-2-yl)-7-oxoheptyl]-2-(3-methyl-1H-pyrazol-1-yl)acetamide] | 75 | 6.2 | 1.7 | 660 | 0.56 | 77 | 200 |
| COc1cc2nc(C)ccc2cc1-c1cnc([C@H](CCCCCC(=O)c2ncco2)NC(=O)c2cc3ccccn3n2)[nH]1 [Example 167, N-[(1S)-1-[5-(7-methoxy-2-methylquinolin-6-yl)-1H-imidazol-2-yl]-7-(1,3-oxazol-2-yl)-7-oxoheptyl]pyrazolo[1,5-a]pyridine-2-carboxamide] | 63 | 13 | 2.2 | > 900 | 0.59 | 83 | 400 |
| COc1cc2nc(C)ccc2cc1-c1cnc([C@H](CCCCCC(=O)c2ncco2)NC(=O)C2CCCCO2)[nH]1 (stereo partly drawn) [Example 168, N-[(1S)-1-[5-(7-methoxy-2-methylquinolin-6-yl)-1H-imidazol-2-yl]-7-(1,3-oxazol-2-yl)-7-oxoheptyl]tetrahydro-2H-pyran-2-carboxamide] | 120 | 12 | 3 | > 900 | 1.2 | 100 | 200 |
| COc1cc2nc(C)ccc2cc1-c1cnc([C@H](CCCCCC(=O)c2ncco2)NC(=O)C2CCCO2)[nH]1 (stereo partly drawn) [Example 169, N-[(1S)-1-[5-(7-methoxy-2-methylquinolin-6-yl)-1H-imidazol-2-yl]-7-(1,3-oxazol-2-yl)-7-oxoheptyl]tetrahydrofuran-2-carboxamide] | 180 | 15 | 3.4 | > 900 | 1.2 | 99 | 270 |
| COc1cc2nc(C)ccc2cc1-c1cnc([C@H](CCCCCC(=O)c2ncco2)NC(=O)C2(C)CCCCO2)[nH]1 (stereo partly drawn) [Example 170, N-[(1S)-1-[5-(7-methoxy-2-methylquinolin-6-yl)-1H-imidazol-2-yl]-7-(1,3-oxazol-2-yl)-7-oxoheptyl]-2-methyltetrahydro-2H-pyran-2-carboxamide] | 220 | 17 | 4.1 | > 900 | 1.6 | 160 | 260 |
| COc1cc2nc(C)ccc2cc1-c1cnc([C@H](CCCCCC(=O)c2ncco2)NC(=O)C2COc3ccccc3O2)[nH]1 (stereo partly drawn) [Example 171, N-[(1S)-1-[5-(7-methoxy-2-methylquinolin-6-yl)-1H-imidazol-2-yl]-7-(1,3-oxazol-2-yl)-7-oxoheptyl]-2,3-dihydro-1,4-benzodioxine-2-carboxamide] | 340 | 56 | 11 | > 900 | 4 | 180 | 470 |
